Results reported in ChEMBL document CHEMBL3639225, “Perfluorinated cyclopropyl fused 1,3-oxazin-2-amine compounds as beta-secretase inhibitors and methods of use” (2015).

These molecules were tested against Cathepsin D (Homo sapiens, UniProt P07339) (assay: Fluorescence Resonance Energy Transfer Assay: Recombinant Cat D was expressed in CHO cells. The assay buffer for CathepsinD is 0.05 M citrate pH 3.5, 10% DMSO final, 5 mM CHAPS. The Cat D enzyme (9 nM) is pre-incubated for one hour with inhibitors, typically in about 1 uL of DMSO according to a serial dilution, is added thereto. The assays are effectively started by the addition of different FRET substrates (20 nM for Cat D) and the combination is incubated for one hour. The FRET assay is terminated with by addition of Tris buffer, which raises the pH to neutrality, and the fluorescence is determined. The FRET substrate is a peptide with commercially available fluorophore and quencher, on opposite sides of the BACE cleavage site. The Cat D substrate peptide sequence is based on sequence #1 of Table 1 from Gulnik et al. FEBS Letters v413 p379-384 1997. Proteolytic cleavage of the FRET substrate releases quenching of fluorescence (Cat D excitation 500 nm and emission 580 nm).).
Format: cell-based

Chain of Cathepsin D (P07339 65-162 limits assumed): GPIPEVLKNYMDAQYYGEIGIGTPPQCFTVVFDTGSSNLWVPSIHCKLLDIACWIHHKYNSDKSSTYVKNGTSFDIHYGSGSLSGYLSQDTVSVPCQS
Chain of Cathepsin D (P07339 169-412 limits assumed): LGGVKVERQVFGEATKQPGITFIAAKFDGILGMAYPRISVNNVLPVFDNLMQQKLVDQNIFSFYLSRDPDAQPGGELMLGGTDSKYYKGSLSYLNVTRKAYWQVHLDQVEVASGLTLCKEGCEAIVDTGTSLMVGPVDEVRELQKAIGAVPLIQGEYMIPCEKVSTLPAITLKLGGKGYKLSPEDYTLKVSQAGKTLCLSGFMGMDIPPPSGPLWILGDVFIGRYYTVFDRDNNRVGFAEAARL

In order of rising IC50:
1. Cc1cc(NC(=O)c2ccc(Cl)cc2CF)cc([C@@]2(C(F)F)N=C(N)O[C@@H]3C[C@@H]32)c1F  171 µM
2. NC1=N[C@](CF)(c2cc(NC(=O)c3ccc(Cl)cn3)cc(F)c2F)[C@H]2C[C@H]2O1  229 µM
3. NC1=N[C@](CF)(c2cc(NC(=O)c3ncc(Cl)cc3CO)ccc2Cl)[C@H]2C[C@H]2O1  533 µM
4. NC1=N[C@@](c2cc(NC(=O)c3ncc(Br)cn3)ccc2F)(C(F)F)[C@H]2C[C@H]2O1  1020 µM
